Columns and labels:
[1] = test system: low Km hexokinases I, II and III (HKI-III); conditions: cited from earlier work
[2] = test system: glucokinase (GK, hexokinase IV); conditions: cited from earlier work
[3] = molecular target: T1, native hexokinase I, overexpressed (Rattus norvegicus, UniProt P05708); conditions: typically seen (Becker et al., 1994; 1996); cited from earlier work
T1 sequence (P05708 1-918): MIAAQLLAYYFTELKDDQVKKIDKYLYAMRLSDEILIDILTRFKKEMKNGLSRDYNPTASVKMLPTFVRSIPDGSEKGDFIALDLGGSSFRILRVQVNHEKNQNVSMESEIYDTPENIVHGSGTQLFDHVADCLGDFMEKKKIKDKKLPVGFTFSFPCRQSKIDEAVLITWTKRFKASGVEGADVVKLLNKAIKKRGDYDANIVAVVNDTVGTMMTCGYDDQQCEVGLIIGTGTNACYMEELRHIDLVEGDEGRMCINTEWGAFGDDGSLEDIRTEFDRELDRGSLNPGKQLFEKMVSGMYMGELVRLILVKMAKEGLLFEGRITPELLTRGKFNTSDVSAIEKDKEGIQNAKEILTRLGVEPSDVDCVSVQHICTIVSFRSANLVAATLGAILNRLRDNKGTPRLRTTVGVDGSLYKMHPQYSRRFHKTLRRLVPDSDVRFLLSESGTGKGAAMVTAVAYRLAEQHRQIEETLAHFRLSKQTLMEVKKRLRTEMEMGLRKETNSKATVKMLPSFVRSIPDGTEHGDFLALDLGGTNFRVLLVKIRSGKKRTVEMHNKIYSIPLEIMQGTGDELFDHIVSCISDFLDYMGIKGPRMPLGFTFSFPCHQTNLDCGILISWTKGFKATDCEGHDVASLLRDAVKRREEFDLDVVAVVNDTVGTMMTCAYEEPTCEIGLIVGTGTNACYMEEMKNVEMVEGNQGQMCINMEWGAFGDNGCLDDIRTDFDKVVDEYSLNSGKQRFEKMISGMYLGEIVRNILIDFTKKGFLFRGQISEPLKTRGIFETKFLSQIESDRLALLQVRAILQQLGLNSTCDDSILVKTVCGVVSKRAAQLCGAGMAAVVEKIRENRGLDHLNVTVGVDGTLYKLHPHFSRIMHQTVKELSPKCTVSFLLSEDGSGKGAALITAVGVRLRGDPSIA

[4] = molecular target: T2, HK-liverGK chimera: N-terminal 455 amino acids of rat hexokinase I fused to rat liver glucokinase, SEQ ID NO:9 (DNA SEQ ID NO:8) (Rattus norvegicus, UniProt P17712); experiment: Glucose phosphorylating activity in extracts of transiently transfected 293 cells, with and without G6P; assay type: biochemical; conditions: 10 mM G6P, 20 mM glucose, 293 cell extracts
T2 construct: expressed in transfected cells; host or cells: human embryonic kidney 293 cells, crude extract
T2 sequence (P17712 with tags, fused parts or gaps isoform P17712-3): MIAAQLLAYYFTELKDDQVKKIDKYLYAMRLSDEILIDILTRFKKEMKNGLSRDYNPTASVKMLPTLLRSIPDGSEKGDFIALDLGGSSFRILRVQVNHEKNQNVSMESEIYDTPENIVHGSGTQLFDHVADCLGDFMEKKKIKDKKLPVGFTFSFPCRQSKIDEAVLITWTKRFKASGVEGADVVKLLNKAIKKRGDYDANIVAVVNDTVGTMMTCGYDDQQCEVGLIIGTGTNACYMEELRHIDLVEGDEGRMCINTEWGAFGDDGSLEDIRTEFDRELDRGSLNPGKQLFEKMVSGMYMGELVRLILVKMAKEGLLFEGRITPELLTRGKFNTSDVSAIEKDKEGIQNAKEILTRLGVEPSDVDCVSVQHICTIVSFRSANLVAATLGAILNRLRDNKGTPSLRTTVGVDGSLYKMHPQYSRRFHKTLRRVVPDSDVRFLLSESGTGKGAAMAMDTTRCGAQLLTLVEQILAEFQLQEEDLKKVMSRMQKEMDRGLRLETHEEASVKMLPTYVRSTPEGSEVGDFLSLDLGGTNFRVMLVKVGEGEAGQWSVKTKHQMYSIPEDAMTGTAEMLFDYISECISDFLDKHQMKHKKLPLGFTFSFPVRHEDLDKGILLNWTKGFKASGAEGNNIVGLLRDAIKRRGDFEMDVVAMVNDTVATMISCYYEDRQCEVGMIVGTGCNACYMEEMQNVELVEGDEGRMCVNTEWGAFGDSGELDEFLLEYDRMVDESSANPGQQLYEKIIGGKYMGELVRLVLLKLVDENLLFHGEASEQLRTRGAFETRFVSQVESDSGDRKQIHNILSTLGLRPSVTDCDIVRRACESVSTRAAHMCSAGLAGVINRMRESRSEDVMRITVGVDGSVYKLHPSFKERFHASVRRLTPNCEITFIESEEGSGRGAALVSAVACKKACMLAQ
Excerpt: (§1) For transient transfection studies, cDNAs encoding chimeric hexokinase/glucokinase proteins consisting of the N-terminal domain of hexokinase I (amino acids 1-455) linked in frame to either the full length liver isoform of glucokinase (HK-liverGK, SEQ ID NO:8) or the islet isoform of glucokinase (HK-isletGK, SEQ ID NO:11) were cloned into pAC.CMVpLpA.
(§2) Plasmids containing DNA encoding either intact islet glucokinase, hexokinase I or one of the two hexokinase/glucokinase chimeras were introduced into the human embryonic kidney cell line 293, using Ca2 PO4 co-precipitation. After incubation with the plasmid DNA, cells were cultured for an additional 48 hours. Cells were harvested and crude extracts prepared for assay of glucose phosphorylating activity, using a radioisotopic assay that monitors conversion of U-^14 C glucose to U^14 C glucose-6-phosphate.
(§3) Assays were performed at 3 and 20 mM glucose. At the lower glucose concentration, hexokinase activity is maximal while glucokinase activity is very low. […] The assay was also performed in the presence and absence of 10 mM unlabeled glucose-6-phosphate (G6P).

[5] = molecular target: T3, HK-isletGK chimera: N-terminal 455 amino acids of rat hexokinase I fused to rat islet glucokinase, SEQ ID NO:12 (DNA SEQ ID NO:11) (Rattus norvegicus, UniProt P17712); experiment: as above; assay type: biochemical; conditions: 10 mM G6P, 20 mM glucose, 293 cell extracts
T3 construct: expressed in transfected cells; host or cells: human embryonic kidney 293 cells, crude extract
T3 sequence (P17712 with tags, fused parts or gaps): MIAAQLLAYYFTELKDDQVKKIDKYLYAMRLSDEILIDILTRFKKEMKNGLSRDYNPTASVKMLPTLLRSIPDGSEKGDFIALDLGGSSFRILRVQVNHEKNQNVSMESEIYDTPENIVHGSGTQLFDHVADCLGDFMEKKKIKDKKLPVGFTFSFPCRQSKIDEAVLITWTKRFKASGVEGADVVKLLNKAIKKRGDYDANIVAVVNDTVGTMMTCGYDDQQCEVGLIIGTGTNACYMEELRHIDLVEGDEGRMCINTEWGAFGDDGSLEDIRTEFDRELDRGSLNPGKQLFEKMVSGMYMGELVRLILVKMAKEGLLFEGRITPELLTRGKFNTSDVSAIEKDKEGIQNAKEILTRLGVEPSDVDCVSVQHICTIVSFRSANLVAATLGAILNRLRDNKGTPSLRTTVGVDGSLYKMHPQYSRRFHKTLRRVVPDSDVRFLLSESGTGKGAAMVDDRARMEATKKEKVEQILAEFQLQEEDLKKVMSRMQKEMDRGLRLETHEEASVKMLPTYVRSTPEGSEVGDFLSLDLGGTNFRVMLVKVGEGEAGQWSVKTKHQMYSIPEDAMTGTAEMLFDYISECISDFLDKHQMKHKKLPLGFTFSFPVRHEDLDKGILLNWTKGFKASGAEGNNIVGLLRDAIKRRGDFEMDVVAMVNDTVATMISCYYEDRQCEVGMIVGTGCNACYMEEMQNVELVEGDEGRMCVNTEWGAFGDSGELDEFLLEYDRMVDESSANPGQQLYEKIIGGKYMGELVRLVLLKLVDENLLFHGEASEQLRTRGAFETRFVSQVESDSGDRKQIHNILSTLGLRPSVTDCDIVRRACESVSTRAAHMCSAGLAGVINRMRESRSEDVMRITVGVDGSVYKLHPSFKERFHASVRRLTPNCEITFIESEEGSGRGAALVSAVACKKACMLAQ
Excerpt: as §1, §2, §3

[6] = molecular target: T4, native (wild type) islet glucokinase, overexpressed (Rattus norvegicus, UniProt P17712); experiment: as above; assay type: biochemical; conditions: 10 mM G6P, 293 cell extracts
T4 construct: Plasmids containing DNA encoding either intact islet glucokinase, hexokinase I; expressed in transfected cells; host or cells: human embryonic kidney 293 cells, crude extract
T4 sequence (P17712 1-465): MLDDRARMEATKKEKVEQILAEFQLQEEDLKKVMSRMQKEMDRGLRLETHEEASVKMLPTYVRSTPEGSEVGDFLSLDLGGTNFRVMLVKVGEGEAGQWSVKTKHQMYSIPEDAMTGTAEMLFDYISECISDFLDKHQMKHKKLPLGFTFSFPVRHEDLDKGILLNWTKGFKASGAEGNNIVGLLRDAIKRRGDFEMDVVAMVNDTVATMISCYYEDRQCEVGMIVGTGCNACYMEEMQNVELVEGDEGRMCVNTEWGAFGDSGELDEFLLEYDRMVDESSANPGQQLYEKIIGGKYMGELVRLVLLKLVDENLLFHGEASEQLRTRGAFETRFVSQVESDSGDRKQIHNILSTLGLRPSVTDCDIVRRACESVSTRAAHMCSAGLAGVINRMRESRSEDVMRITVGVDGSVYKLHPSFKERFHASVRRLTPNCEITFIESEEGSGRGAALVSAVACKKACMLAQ
Method: as §2, with “glucose-6-phosphate. The extract buffer and assay procedure have previously been described in detail (Kuwajima, et al., 1986; Becker, et al., 1994; each incorporated herein by reference).” for “glucose-6-phosphate.”
Assays were performed at 3 and 20 mM glucose. At the lower glucose concentration, hexokinase activity is maximal while glucokinase activity is very low. At the higher concentration, glucokinase activity is increased to near maximal. The assay was also performed in the presence and absence of 10 mM unlabeled glucose-6-phosphate (G6P). In the presence of G6P, low Km hexokinases are inhibited, but glucokinase is not.

[7] = running text (Wilson, 1985), read-out: Km for glucose

| Compound | Km [1, 7] [mM] | Km [2, 7] [mM] | inhibition of glucose phosphorylating activity by G6P [3] [%] | inhibition of glucose phosphorylating activity by G6P [4] | inhibition of glucose phosphorylating activity by G6P [5] | Ki ([1]; Table 1, HKI-III, read-out: Ki G-6-P) [mM] | effect of glucose-6-phosphate on glucose phosphorylating activity [6] | Ki ([2]; Table 1, GK, read-out: Ki G-6-P) [mM] | glucose-6-phosphate concentration required for appreciable inhibition [2] [mM] |
| --- | --- | --- | --- | --- | --- | --- | --- | --- | --- |
| OC[C@H]1OC(O)[C@H](O)[C@@H](O)[C@@H]1O (stereo partly drawn) [glucose] | 0.01 to 0.05 | 6 to 8 | – | – | – | – | – | – | – |
| O=P(O)(O)OC[C@H]1OC(O)[C@H](O)[C@@H](O)[C@@H]1O (stereo partly drawn) [glucose-6-phosphate] | – | – | 90 | approximately 20% | approximately 40% | 0.2 to 0.9 | no significant effect | 60 | > 10 |

Source: US5891717A, “Methods and compositions for inhibiting hexokinase” (priority 1996, dated 1999)
